Assay [1] relates to neurons from hippocampi of E18 rat embryos. Put plainly: Neurite growth length (% NTL) in cultured E18 rat hippocampal neurons, 9-point dose response, 48 hours. The conditions noted are these: for activity at 0.078 µM / activity at 0.156 µM / activity at 0.312 µM / activity at 0.625 µM / activity at 1.25 µM / activity at 2.5 µM / activity at 5 µM / activity at 10 µM / activity at 20 µM: Rattus norvegicus, Neuron, 48 h. The format is cell-based. The method, boiled down:
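Dissociated E18 rat hippocampal neurons at 1500 cells/well on PDL were exposed 48 h to 9 concentrations from 20 μM down to 0.078125 μM. After PFA fixation and βIII-tubulin/Hoechst staining, ArrayScan imaging traced neurites in at least 200–300 neurons per condition to give % NTL.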

For another assay, the system named is Primary Neurons. Put plainly: HCS neurite outgrowth assay (High Content Screening with Primary Neurons). In kind it is cell-based.

Where two headings read alike, the source gives them in different places. Where only a bound is given, the exact number is not on record here.

Take `COc1ccc(O)c(C(=O)c2ccc(C(=O)NC3CNC[C@H]3NC(=O)c3ccncc3)cc2)c1F` (stereo in doubt) [Example A32, N-[(3R,4S)-4-[4-(2-fluoro-6-hydroxy-3-methoxybenzoyl)benzamido]pyrrolidin-3-yl]pyridine-4-carboxamide]: the “neurite growth length (% NTL)” value in assay [1] (78 nM) is given as 98.72 % NTL; in assay [1] (156 nM), 86.89 % NTL; in assay [1] (312 nM), 88.20 % NTL; in assay [1] (625 nM) it was 84.61 % NTL; in assay [1] (1.25 μM), 81.36 % NTL; in assay [1] (2.5 μM), 90.59 % NTL. Further, the “neurite growth length (% NTL)” value in assay [1] (5 μM) is given as 88.24 % NTL; in assay [1] (10 μM), 82.90 % NTL; in assay [1] (20 μM), 86.59 % NTL. The same molecule yielded a half-maximal effective concentration (EC50) in the assay on Primary Neurons above 20000 nM.

`Nc1nccc(C(=O)N[C@@H]2CNC[C@H]2NC(=O)c2ccc(C(=O)c3c(O)cccc3F)cc2)n1` [Example A50, 2-amino-N-[(3R,4R)-4-[4-(2-fluoro-6-hydroxybenzoyl)benzamido]pyrrolidin-3-yl]pyrimidine-4-carboxamide]: the activity at 0.078 µM in assay [1] (78 nM) is 113%. Besides, the activity at 0.156 µM in assay [1] (156 nM) worked out at 113%. Also, the activity at 0.312 µM in assay [1] (312 nM) stood at 118%. Moreover, in assay [1] (625 nM), the activity at 0.625 µM was determined as 136%. Further, in assay [1] (1.25 μM), the activity at 1.25 µM stood at 194%. The activity at 2.5 µM in assay [1] (2.5 μM) worked out at 285%. Also, the activity at 5 µM in assay [1] (5 μM) was found to be 431%. For the same molecule, in assay [1] (10 μM), the activity at 10 µM came to 561%. Moreover, the activity at 20 µM in assay [1] (20 μM) was found to be 457%. For the same molecule, the EC50 in the assay on Primary Neurons (Primary neuron) was 3600 nM.

With `COc1ccc(O)c(C(=O)c2ccc(C(=O)N[C@@H]3CNC[C@H]3NC(=O)c3ccc4c(cnn4C)c3)cc2)c1F` [Example A53, N-[(3R,4R)-4-[4-(2-fluoro-6-hydroxy-3-methoxybenzoyl)benzamido]pyrrolidin-3-yl]-1-methyl-1H-indazole-5-carboxamide], the activity at 0.078 µM in assay [1] (78 nM) amounted to 90%. The activity at 0.156 µM in assay [1] (156 nM) was 82.5%. The activity at 0.312 µM in assay [1] (312 nM) worked out at 79.3%. In addition, the activity at 0.625 µM in assay [1] (625 nM) was determined as 76.3%. In addition, in assay [1] (1.25 μM), the activity at 1.25 µM amounted to 85.8%. Further, the activity at 2.5 µM in assay [1] (2.5 μM) is 88.5%. Further, in assay [1] (5 μM), the activity at 5 µM came out at 90.1%. The activity at 10 µM in assay [1] (10 μM) amounted to 91.9%. Also, the activity at 20 µM in assay [1] (20 μM) came to 70%. In the assay on Primary Neurons (Primary neuron), this molecule displayed an EC50 of 814 nM.

With `COc1ccc(O)c(C(=O)c2ccc(C(=O)N[C@@H]3CNC[C@H]3NC(=O)c3ccc4c(c3)CC(=O)N4)cc2)c1F` [Example A35, N-[(3R,4R)-4-[4-(2-fluoro-6-hydroxy-3-methoxybenzoyl)benzamido]pyrrolidin-3-yl]-2-oxo-2,3-dihydro-1H-indole-5-carboxamide], the activity at 0.078 µM in assay [1] (78 nM) amounted to 91.8%. Besides, the activity at 0.156 µM in assay [1] (156 nM) came to 90.1%. For the same molecule, the activity at 0.312 µM in assay [1] (312 nM) is 86.3%. Also, the activity at 0.625 µM in assay [1] (625 nM) worked out at 89.3%. For the same molecule, in assay [1] (1.25 μM), the activity at 1.25 µM was determined as 86.9%. Besides, in assay [1] (2.5 μM), the activity at 2.5 µM was found to be 95%. The activity at 5 µM in assay [1] (5 μM) is 97.2%. For the same molecule, the activity at 10 µM in assay [1] (10 μM) stood at 96.7%. Further, the activity at 20 µM in assay [1] (20 μM) stood at 107%. A half-maximal effect in the assay on Primary Neurons (Primary neuron) (EC50) was put at 163 nM.

`COc1ccc(O)c(C(=O)c2ccc(C(=O)N[C@@H]3CNC[C@H]3NC(=O)c3ccc4cn[nH]c4c3)cc2)c1F` [Example A57, N-[(3R,4R)-4-[4-(2-fluoro-6-hydroxy-3-methoxybenzoyl)benzamido]pyrrolidin-3-yl]-1H-indazole-6-carboxamide]: in assay [1] (78 nM), the activity at 0.078 µM is 92.2%. Moreover, the activity at 0.156 µM in assay [1] (156 nM) is 97.8%. In addition, the activity at 0.312 µM in assay [1] (312 nM) came to 95.1%. Besides, the activity at 0.625 µM in assay [1] (625 nM) was determined as 93.9%. In addition, in assay [1] (1.25 μM), the activity at 1.25 µM is 97.3%. For the same molecule, the activity at 2.5 µM in assay [1] (2.5 μM) came out at 93.5%. Also, the activity at 5 µM in assay [1] (5 μM) was found to be 105%. Besides, the activity at 10 µM in assay [1] (10 μM) was determined as 107%. For the same molecule, the activity at 20 µM in assay [1] (20 μM) was found to be 111%. The same molecule yielded a half-maximal effective concentration (EC50) with Primary Neurons (Primary neuron) above 20000 nM.

What is called EC50 is the concentration at which the effect is half-maximal.

For the origin of these results see US11926613B2, “Kinase inhibitors for the treatment of central and peripheral nervous system disorders” (UNIVERSITY OF MIAMI, priority 2017, dated 2024).
